{"source": "patent US8486949B2", "about": "“Use of azaperone for improving growth performance” (Elanco Animal Health Ireland Limited, priority 2008, dated 2013)", "key": {"weaned pigs [1]": {"tested_on": "weaned pigs", "assay": "Preclinical study of the effects of azaperone administered via drinking water: body weight per pig", "type": "in vivo", "method": "Preclinical Study of the Effects of Azaperone Administered Via Drinking Water The study was performed in weaned pigs to investigate the effect of azaperone that was continuously orally administered via drinking water on behaviour, feed conversion, growth and homogeneity of growth. Groups of approximately 250 pigs were enrolled in the study starting from the moment they were weaned. The pigs were housed according to everyday farming conditions in a conventional pig farm. All pigs were housed in similar buildings. Each group was housed in 2 compartments, gilts and barrows were housed in separate compartments. Pigs were kept in pens of approximately 12 individuals each. After weaning, the piglets were housed in continuous artificial light for the first 48 hours. Afterwards, pigs were housed in continuous darkness for the further duration of the study, except during observations (twice a day). During the course of the study, pigs were not vaccinated. A metaphylactic colistine treatment via drinking water was applied in each group starting from the fifth day after weaning. Treatment continued for seven days. Pigs were fed ad libitum. Troughs were filled automatically with a computerized system that records the supplied weight of feed per pen. During the first ten days of the nursery period, pigs were fed a pelleted weaner feed which had also been available to the piglets in the farrowing unit. Between the 10th and 15th day at the nursery, the weaner feed was gradually replaced by grower pellets which have been given until the 35th day. Finally a switch was made between the 35th and the 40th day from grower pellets to starter pellets. Tap water was available during the whole period of the study and was supplied via a water nipple in the feeding trough. The drinking water comprising azaperone was obtained by diluting Stresnil™ injection in water to obtain a concentration of 6 mg azaperone per liter drinking water. A primary dilution was prepared by diluting 90 ml of Stresnil™ 4% injectable solution with tap water to obtain 6 liters of preparation. This primary dilution was linked for 24 hours with an automatic dosing system which continuously diluted the preparation in the drinking water at a rate of 1 to 100. One preparation of the primary dilution was sufficient to treat 600 liters of drinking water which exceeded the anticipated daily consumed volume of water by the pigs in one compartment. The two following days, a new primary dilution was made fresh each morning and linked to the automatic dosing system for 24 hours. This study was a controlled parallel study with 4 sequential groups of approximately 250 weaned pigs each. The first and third group were treated with azaperone via the drinking water for 3 consecutive days. The second and fourth group were control groups treated with placebo (plain drinking water). After the completion of these four groups, two additional groups (one treated with azaperone and one control group) were included in the study to investigate more in detail the effect of the azaperone treatment on the behaviour of the pigs. In each of these additional groups, 5 pens of approximately 12 pigs were enclosed. On day one of the test period, water containing 6 mg azaperone per liter or placebo, was made available. Starting from the fourth day, the drinking water no longer contained azaperone. All pigs followed the normal procedures for further fattening. No pigs were brought to the slaughterhouse during the study (3 days dosing and 39 days follow-up). Body weights were determined for all pigs in groups 1 to 4. The body weight of each individual animal was determined a first time at the start of the study, just before movement to the nursery and a second time at the end of the study, after a period of 42 days in the nursery. […]"}, "weaned pigs [2]": {"tested_on": "weaned pigs", "assay": "Behaviour of the animals per pen (groups 5 and 6: pigs lying down, eating or drinking, hierarchical fights)", "type": "in vivo", "method": "This study was a controlled parallel study with 4 sequential groups of approximately 250 weaned pigs each. The first and third group were treated with azaperone via the drinking water for 3 consecutive days. The second and fourth group were control groups treated with placebo (plain drinking water). After the completion of these four groups, two additional groups (one treated with azaperone and one control group) were included in the study to investigate more in detail the effect of the azaperone treatment on the behaviour of the pigs. In each of these additional groups, 5 pens of approximately 12 pigs were enclosed.\nIn order to assess the effect of the azaperone treatment on the behaviour of the animals after weaning, the occurrence of hierarchical fights was followed in groups 1 to 4 and recorded by the Principal Investigator during a period of 1 week after weaning. Every day a behaviour score of 0 to 2 was given to each pen:\nIn groups 1 to 4, behaviour of the pigs was always scored as normal although hierarchical fighting was reported on the farm. […] These two additional groups (one treated with azaperone and one control group) were closely monitored for behavioural changes. During the first 7 hours after weaning and movement to the nurseries, the occurrence and severity of hierarchical fights, the number of pigs laying down, and the number of pigs eating or drinking, was recorded. […]"}, "pigs": {"tested_on": "pigs", "details": "cited from earlier work"}}, "data": [{"smiles": "O=C(CCCN1CCN(c2ccccn2)CC1)c1ccc(F)cc1", "note": "[azaperone]", "values": [{"measurement": "body weight gained during the study", "setting": "weaned pigs [1]; 6 mg azaperone per liter drinking water for 3 days, 42 day test period, mean±SD", "value": "16.3 ± 3.31", "unit": "kg"}, {"measurement": "Final BW CoV (coefficient of variation)", "setting": "weaned pigs [1]; after 42 days in the nursery", "value": 18, "unit": "%"}, {"measurement": "Final BW", "setting": "weaned pigs [1]; after 42 days in the nursery, 6 mg/liter drinking water for first 3 days", "value": 23.62, "unit": "kg"}, {"measurement": "body weight gain CoV (coefficient of variation)", "setting": "weaned pigs [1]; over 42 days", "value": 20, "unit": "%"}, {"measurement": "body weight gain", "setting": "weaned pigs [1]; over 42 days, 6 mg/liter drinking water for first 3 days", "value": 16.34, "unit": "kg"}, {"measurement": "homogeneity of body weight distribution at the end of the testing period", "setting": "weaned pigs [1]; versus placebo groups", "value": "more homogenous body weight distribution"}, {"measurement": "number of pigs lying down or eating versus placebo", "setting": "weaned pigs [2]; groups 5 and 6, first 7 hours after initiation of treatment, 6 mg/liter drinking water", "value": "no difference"}, {"measurement": "sedative effect", "setting": "weaned pigs [2]; oral via drinking water, 6 mg/liter", "value": "absence of a sedative effect"}, {"measurement": "effect on weight gain, feed consumption or feed efficiency", "setting": "pigs; intramuscular administration to pigs, Gonyou et al., J. Anim. Sci. 1988", "value": "did not had significant effect"}, {"measurement": "effect in promoting relative growth rate", "setting": "pigs; intramuscular injection to pigs, Blackshaw, Aust. Vet. J. 1981", "value": "no effect"}, {"measurement": "weight gain", "setting": "pigs; intramuscular injection to pigs, Porter and Slusser, Veterinary Medicine 1985", "value": "increased weight gain"}]}]}
